The target in test [1] is T1, PameOBP1 (Periplaneta americana, UniProt B6E9U7). Description: Binding of fluorescent probe 1-NPN to PameOBP1 (saturation, Scatchard). Particulars: read-out: dissociation constant of 1-NPN for PameOBP1. How it is done: (§1) Emission fluorescence spectra were measured on a Hitachi F-4500 fluorescence spectrophotometer following our previous studies. Firstly, dissociation constants of the PameOBPs for N-phenyl-1-naphtylamine (1-NPN) were calculated to determine the suitability of 1-NPN as a fluorescence reporter. After the determination of the reporter, the affinities of the PameOBPs for each ligand were measured using 2 μM 1-NPN as the fluorescent reporter and 0.25–2.5 μM or 2–40 μM as competitor, in at least three technical replicates. The binding data were analyzed following our previous studies.
T1 sequence (B6E9U7 entry or part of it): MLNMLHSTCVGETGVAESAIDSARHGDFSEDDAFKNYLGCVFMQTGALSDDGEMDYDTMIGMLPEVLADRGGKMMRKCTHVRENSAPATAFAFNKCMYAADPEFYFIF
(§2) To investigate the role of three PameOBPs in the detection of odorants, we firstly tested the binding affinity of PameOBPs to fluorescent probe 1-NPN. […] Saturation and linear Scatchard plots (Fig 5A) indicated single binding sites in the proteins with no allosteric effects. We were, therefore, able to use the fluorescence competitive binding assay to determine the binding affinities of these three PameOBPs to 87 odorants from apple, grape, peach, pear, the juice of these fruits, and beer.

Test [2] deals with T2, PameOBP2 (Periplaneta americana, UniProt B6E9U8). Description: Binding of fluorescent probe 1-NPN to PameOBP2 (saturation, Scatchard). The note with it: read-out: dissociation constant of 1-NPN for PameOBP2. The protocol: as §1, §2
T2 sequence (B6E9U8 entry or part of it): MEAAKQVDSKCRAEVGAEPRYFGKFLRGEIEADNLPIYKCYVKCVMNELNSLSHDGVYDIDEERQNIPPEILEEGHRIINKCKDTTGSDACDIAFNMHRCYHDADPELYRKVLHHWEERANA
The target of test [3] is T3, PameOBP3 (Periplaneta americana, UniProt B6E9U9). Description: Binding of fluorescent probe 1-NPN to PameOBP3 (saturation, Scatchard). Particulars: read-out: dissociation constant of 1-NPN for PameOBP3. The protocol: as §1, §2
T3 sequence (B6E9U9 entry or part of it): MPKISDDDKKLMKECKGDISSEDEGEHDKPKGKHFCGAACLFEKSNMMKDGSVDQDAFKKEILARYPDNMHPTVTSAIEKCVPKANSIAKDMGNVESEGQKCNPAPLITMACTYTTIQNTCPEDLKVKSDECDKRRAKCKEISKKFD
Test [4] addresses T1, PameOBP1. Description: Competitive fluorescence binding assay (1-NPN displacement), recombinant PameOBP1. Particulars: 2 μM 1-NPN as fluorescent reporter, competitor 0.25–2.5 μM or 2–40 μM. An excerpt:
(§3) The PameOBPs were expressed by using Escherichia coli expression system. To generate properly folded protein, the signal peptide predicted by SignalIP 4.1 [18] was removed. The two PameOBPs were amplified by gene special primers (S1 Table) with the cDNA as the template. The purified PCR products were ligated into expression vector pGEX-4T-1 using In-Fusion® HD Cloning Kit (Clontech, Mountain View, CA) according to the manufacturer’s instructions. The recombinant plasmid was transformed into E. coli BL21 (DE3) cells, and then expression and purification was performed according to a previously reported protocol. Recombinant proteins in the supernatant were purified by an affinity chromatography column GSTrap FF (GE Healthcare, Piscataway, NJ, USA). The GST tags were cleaved from recombinant proteins using 400 μL of thrombin (1U/μL) while loaded on GSTrap FF column at 25°C for 10 h and allowed 12 h. After that, the recombinant proteins were eluted with PBS buffer. Finally, the eluted proteins were desalted using HiTrap Desalting (GE Healthcare), lyophilized, and stored at −80°C until use.
(§4) Emission fluorescence spectra were measured on a Hitachi F-4500 fluorescence spectrophotometer following our previous studies. Firstly, dissociation constants of the PameOBPs for N-phenyl-1-naphtylamine (1-NPN) were calculated to determine the suitability of 1-NPN as a fluorescence reporter. […] The binding data were analyzed following our previous studies.

The target of test [5] is T2, PameOBP2. Description: Competitive fluorescence binding assay (1-NPN displacement), recombinant PameOBP2. Particulars: 2 μM 1-NPN as fluorescent reporter, competitor 0.25–2.5 μM or 2–40 μM.
Text: as §3, §4

The target in test [6] is T3, PameOBP3. Description: Competitive fluorescence binding assay (1-NPN displacement), recombinant PameOBP3.
Text: as §3, §4

Where [7] appears, read: 2 μM 1-NPN as fluorescent reporter, competitor 0.25–2.5 μM or 2–40 μM, read-out: PameOBP3 Ki.

Where two headings read alike, the source gives them in different places. Where only a bound is given, the exact number is not on record here.

Consider `c1ccc(Nc2cccc3ccccc23)cc1` [1-NPN, N-phenyl-1-naphtylamine], for which the Kd in test [1] worked out at 20.5 µM; in test [2] it was 8.04 µM; in test [3] it was 24.9 µM.

Broadly, the Ki is the equilibrium dissociation constant of an inhibitor or competing ligand from its target. Regarding `CCCCCCCCCCCCCCCCC` [heptadecane], the Ki in test [4] (read-out: PameOBP1 Ki), in test [5] (read-out: PameOBP2 Ki) and in test [6] (setting [7]) was greater than 40 µM in each case.

Regarding `CCCCCCCOC(C)=O` [heptyl acetate], the Ki in test [4] (read-out: PameOBP1 Ki), in test [5] (read-out: PameOBP2 Ki) and in test [6] (setting [7]) was greater than 40 µM throughout.

`CCCCCC=O` [hexanal]: the inhibition constant (Ki) in test [4] (PameOBP1 Ki), in test [5] (PameOBP2 Ki) and in test [6] was greater than 40 µM in each case.

On to `CCCCCCOC(=O)CCC` [hexyl butyrate], for which the inhibitory constant (Ki) in test [4] (read-out: PameOBP1 Ki), in test [5] (read-out: PameOBP2 Ki) and in test [6] (setting [7]) was greater than 40 µM throughout.

As for `c1ccc2[nH]ccc2c1` [indole], the Ki in test [4] (PameOBP1 Ki), in test [5] (PameOBP2 Ki) and in test [6] was greater than 40 µM in each case.

As to `CC(=O)OCCC(C)C` [isoamyl acetate], the Ki in test [4] (read-out: PameOBP1 Ki), in test [5] (read-out: PameOBP2 Ki) and in test [6] (setting [7]) was greater than 40 µM in each case.

For `C=CC(C)(O)CCC=C(C)C` (stereo not drawn) [linalool], the Ki in test [4] (PameOBP1 Ki), in test [5] (PameOBP2 Ki) and in test [6] was greater than 40 µM each time.

As to `COC(=O)c1ccccc1O` [methyl salicylate], the Ki in test [4] (PameOBP1 Ki), in test [5] (PameOBP2 Ki) and in test [6] was greater than 40 µM in each case.

For the molecule `c1ccc2ccccc2c1` [naphthalene], the Ki in test [4] (PameOBP1 Ki), in test [5] (PameOBP2 Ki) and in test [6] was greater than 40 µM each time.

Turning to `CCCCCCCCCOC(C)=O` [nonyl acetate], the Ki in test [4] (read-out: PameOBP1 Ki), in test [5] (read-out: PameOBP2 Ki) and in test [6] (setting [7]) was greater than 40 µM in each case.

Consider `CCCCCCCCCCCCCCCCCC` [octadecane], for which the inhibition constant (Ki) in test [4] (read-out: PameOBP1 Ki), in test [5] (read-out: PameOBP2 Ki) and in test [6] (setting [7]) was greater than 40 µM throughout.

As for `CCCCCCCCOC(C)=O` [octyl acetate], the inhibition constant (Ki) in test [4] (read-out: PameOBP1 Ki), in test [5] (read-out: PameOBP2 Ki) and in test [6] (setting [7]) was greater than 40 µM in each case.

Consider `CCCCCOC(C)=O` [pentyl acetate], for which the inhibitory constant (Ki) in test [4] (read-out: PameOBP1 Ki), in test [5] (read-out: PameOBP2 Ki) and in test [6] (setting [7]) was greater than 40 µM in each case.

With `OCCc1ccccc1` [phenethyl alcohol], the Ki in test [4] (read-out: PameOBP1 Ki), in test [5] (read-out: PameOBP2 Ki) and in test [6] (setting [7]) was greater than 40 µM throughout.

Turning to `O=CCc1ccccc1` [phenylacetaldehyde], the inhibition constant Ki in test [4] (PameOBP1 Ki), in test [5] (PameOBP2 Ki) and in test [6] was greater than 40 µM in each case.

Turning to `CCC/C=C/C=O` [trans-2-hexenal], the inhibitory constant (Ki) in test [4] (PameOBP1 Ki), in test [5] (PameOBP2 Ki) and in test [6] was greater than 40 µM each time.

For the molecule `CCC/C=C/COC(C)=O` [trans-2-hexenyl acetate], the inhibitory constant (Ki) in test [4] (read-out: PameOBP1 Ki), in test [5] (read-out: PameOBP2 Ki) and in test [6] (setting [7]) was greater than 40 µM in each case.

`CCC/C=C/COC(=O)CCC` [trans-2-hexenyl butyrate]: the Ki in test [4] (read-out: PameOBP1 Ki), in test [5] (read-out: PameOBP2 Ki) and in test [6] (setting [7]) was greater than 40 µM in each case.

As to `CCCCCCCCCCCCC` [tridecane], the inhibition constant Ki in test [4] (read-out: PameOBP1 Ki), in test [5] (read-out: PameOBP2 Ki) and in test [6] (setting [7]) was greater than 40 µM throughout.

As to `CCCCCCCCCCC=O` [undecanal], the Ki in test [4] (read-out: PameOBP1 Ki), in test [5] (read-out: PameOBP2 Ki) and in test [6] (setting [7]) was greater than 40 µM throughout.

For the molecule `CCCCCCCCCCC` [undecane], the Ki in test [4] (read-out: PameOBP1 Ki), in test [5] (read-out: PameOBP2 Ki) and in test [6] (setting [7]) was greater than 40 µM each time.

The values are drawn from article PMC5232348, “Molecular and Functional Characterization of Three Odorant-Binding Protein from Periplaneta americana” (PLoS ONE, 2017).
